These results are taken from patent EP1572665B1, “1-N-PHENYLAMINO-1H-IMIDAZOLE DERIVATIVES AS AROMATASE INHIBITORS” (LABORATOIRE THERAMEX, priority 2002, dated 2004).

The structures appear in SMILES notation. Structures can show the parent of a compound that is named as a salt.

One test has as its target T1, human aromatase (Homo sapiens, UniProt P11511).
T1 construct: The JEG-3 cell line, derived from a human placental choriocarcinoma, is intrinsically very rich in human aromatase; endogenous in cells; host or cells: JEG-3 (human placental choriocarcinoma)
T1 sequence (P11511 1-503): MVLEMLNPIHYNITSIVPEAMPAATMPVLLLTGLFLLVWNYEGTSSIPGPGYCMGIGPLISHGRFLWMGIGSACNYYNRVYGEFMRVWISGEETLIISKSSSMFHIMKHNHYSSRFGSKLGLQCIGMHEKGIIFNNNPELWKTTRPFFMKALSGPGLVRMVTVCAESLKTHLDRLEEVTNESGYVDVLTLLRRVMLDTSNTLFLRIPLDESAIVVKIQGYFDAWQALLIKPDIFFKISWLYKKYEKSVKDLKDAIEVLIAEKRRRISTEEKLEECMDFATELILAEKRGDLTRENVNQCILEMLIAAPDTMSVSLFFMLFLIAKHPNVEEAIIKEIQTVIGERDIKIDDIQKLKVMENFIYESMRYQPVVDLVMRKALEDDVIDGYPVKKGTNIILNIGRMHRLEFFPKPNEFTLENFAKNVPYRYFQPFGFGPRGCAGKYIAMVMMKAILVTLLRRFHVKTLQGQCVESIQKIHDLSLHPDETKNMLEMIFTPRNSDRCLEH
Kind of test: Inhibition of human aromatase in vitro in JEG-3 cells (3H-water release from 1β-3H-androstenedione). The class given is cell-based. The note with it: JEG-3 cell line; 1β-3H-androstenedione 10 nM; 2 hours incubation; mean ± sem.

The target in another test is T2, aromatase (Rattus norvegicus, UniProt P22443).
T2 construct: In the rat, estradiol is physiologically synthesized to high circulating levels; from tissue; host or cells: whole animal: adult female Wistar rats (endogenous aromatase)
T2 sequence (P22443 1-508): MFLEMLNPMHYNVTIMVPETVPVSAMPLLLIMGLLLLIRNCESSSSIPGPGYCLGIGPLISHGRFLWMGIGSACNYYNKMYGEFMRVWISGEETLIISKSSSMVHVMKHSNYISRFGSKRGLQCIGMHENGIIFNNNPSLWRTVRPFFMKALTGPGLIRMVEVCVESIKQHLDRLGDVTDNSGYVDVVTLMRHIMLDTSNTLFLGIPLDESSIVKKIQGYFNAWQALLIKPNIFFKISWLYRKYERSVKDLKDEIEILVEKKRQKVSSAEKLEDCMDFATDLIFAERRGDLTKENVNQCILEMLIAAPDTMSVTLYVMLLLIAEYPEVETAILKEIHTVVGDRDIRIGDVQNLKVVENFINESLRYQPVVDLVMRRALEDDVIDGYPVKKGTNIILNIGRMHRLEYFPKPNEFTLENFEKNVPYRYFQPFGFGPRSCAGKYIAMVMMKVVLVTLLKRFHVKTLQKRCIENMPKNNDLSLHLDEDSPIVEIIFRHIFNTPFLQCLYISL
Kind of test: Inhibition of aromatase in vivo (inhibition of the preovulatory surge of plasma estradiol levels). The note with it: adult female Wistar rats, single oral administration of 10 micrograms/kg on diestrus, plasma estradiol 24 hours later, vs vehicle controls, n = number of independent studies; for inhibition at 0.01 mg/kg: rat, read-out: % inhibition at 10 µg/kg. From the text: Aromatase is the steroidogenic enzyme responsible for the biosynthesis of estradiol, the main female sex hormone among estrogens. In the rat, estradiol is physiologically synthesized to high circulating levels in a particular period during the 4-day estrous cycle : it is the so-called preovulatory surge taking place in the afternoon of proestrus, just before ovulation which occurs during the night between proestrous and estrous phases. A sensitive physiological model for in vivo evaluation of aromatase inhibition was developped based on the inhibition of this preovulatory surge of estradiol levels.
Adult female Wistar rats are monitored for regular 4-day estrous cyclicity by daily vaginal smear examination; after 2 or 3 regular cycles, animals are treated by a single oral administration of the very low discriminative dose of 10 micrograms/kg in a 4 ml/kg volume around 04:00 PM on diestrus, i.e. on the day before proestrus. Precisely 24 hours later, aortic blood samples are drawn under gaseous anesthesia. Plasma estradiol levels are measured by radioimmunoassay with commercially available kits (Diagnostic Systems Laboratories, Webster, Texas, U. S. A.). Control and test groups usually consist of 7 to 10 rats, depending on the number of regularly cycling rats to distribute among study groups. Results are expressed in pg/ml and then in % of inhibition taking the estradiol levels of control animals receiving only the oral vehicle as the 100 % reference to allow comparisons between different independent studies, since the preovulatory surge level may vary in each control group from one study to another between about 25 to 40 pg/ml. Table B : Inhibition of aromatase in vivo

Procedure for human aromatase: Stocks of JEG-3 cells are grown up to 80 % of confluence as monolayers in plastic flasks in minimum Eagle's medium with 1 g/l glucose and 10 % decomplemented fetal calf serum at pH 7.4 and 37° C, under a 5 % CO2 atmosphere. Then, 24 hours before aromatase activity measurement, JEG-3 cells are distributed for seeding in 96-well microplates (60,000 to 100,000 viable cells in 100 µl of culture medium per well) ; 24 hours later, microplates are rinsed and fresh medium containing the radioactive aromatase substrate (1β-^3H-androstenedione, 10 nM) is added together with test compounds dissolved with 1 % dimethylsulfoxide in a test concentration range between 10^-11 and 10^-4 M in a total volume of 150 µl.
Two hours after the beginning of the incubation, 100 µl of the supernatants are transferred to homologous new 96-well microplates. A solution of dextran-coated charcoal (1 %) is added in each well (100 µl/well) ; after standing for 10 minutes on ice, microplates are centrifuged (1500 g) for 10 more minutes at 4° C. All steroids, including the radioactive substrate and the newly biosynthesized estrogens, are trapped complexed by the charcoal ; only ^3H-water specifically formed during aromatisation of 1β-^3H-androstenedione, involving a specific oxidative step removing the 1β-^3H, remains in the supernatant at this stage. […]

The compound `N#Cc1ccc(N(Cc2ccc(Br)cc2)n2cnnc2)cc1` [YM 511, reference compound] displayed an IC50 against human aromatase of 0.3 ± 0.04 nM. For the same compound, the “% inhibition at 10 µg/kg” value on aromatase is 35%. In the case of `N#Cc1ccc(N(Cc2ccc(F)cc2)n2ccnc2)cc1` [Example 14, 4-[N-(1H-imidazol-1-yl)-N-(4-fluorophenylmethyl)amino]benzonitrile, hydrochloride hemihydrate], the inhibition at 0.01 mg/kg on aromatase was 49 to 57%.

Take `N#Cc1ccc(N(Cc2ccc(Cl)cc2)n2ccnc2)cc1` [Example 7, 4-[N-(1H-imidazol-1-yl)-N-(4-chlorophenylmethyl)amino]benzonitrile, hydrochloride]: the inhibition at 0.01 mg/kg on aromatase is 47%. Take `N#Cc1ccc(N(Cc2ccc(C(F)(F)F)cc2)n2ccnc2)cc1` [Example 6, 4-[N-(1H-imidazol-1-yl)-N-(4-trifluoromethylphenylmethyl)amino]-benzonitrile]: on aromatase, the inhibition at 0.01 mg/kg was determined as 57%. Same read-out and setting: with `CC(C)(C#N)c1cc(Cn2cncn2)cc(C(C)(C)C#N)c1` [Anastrozole, anastrozole, reference compound] the figure was 18 to 33%; with `N#Cc1ccc(N(Cc2ccc(F)c(F)c2)n2ccnc2)cc1` [Example 17, 4-[N-(1H-imidazol-l-yl)-N-(3,4-difluorophenylmethyl)amino]benzonitrile], 60%. Consider `N#Cc1ccc(CN(c2ccc(C#N)cc2)n2ccnc2)cc1` [Example 11, 4-[N-(1H-imidazol-1-yl)-N-(4-cyanophenylmethyl)amino]benzonitrile, hydrochloride], for which the inhibition at 0.01 mg/kg at aromatase was 57 to 59%.
